According to publication PMC8092876, “A Leucyl-tRNA Synthetase Inhibitor with Broad-Spectrum Antimycobacterial Activity” (Antimicrobial Agents and Chemotherapy, 2021):

System: M. abscessus Bamboo
Type: cell-based
Conditions: M. abscessus versus M. tuberculosis

CC(C)(O)COc1ccc(Br)c2c1B(O)O[C@@H]2CN [EC/11770]
frequency of resistance lower than for other benzoxaboroles in M. tuberculosis: 100 fold
